Results from patent publication EP4792811A1, “S1PR4 REGULATOR COMPOUND FOR MUSCLE DISEASE TREATMENT AND APPLICATION THEREOF” (Shengyuan Zetong (Shanghai) Pharmaceutical Co., Ltd, priority 2023, dated 2025).

Tests used:
[1] = molecular target: T1, hS1P4 (Homo sapiens, UniProt O95977); experiment: Tango β-arrestin recruitment assay, Tango-hS1P4-CHO; assay type: cell-based; settings: selectivity table; Tango-S1PR4-CHO-K1 cells
T1 construct: expressed in transfected cells; host or cells: CHO-K1
T1 sequence (O95977 1-384): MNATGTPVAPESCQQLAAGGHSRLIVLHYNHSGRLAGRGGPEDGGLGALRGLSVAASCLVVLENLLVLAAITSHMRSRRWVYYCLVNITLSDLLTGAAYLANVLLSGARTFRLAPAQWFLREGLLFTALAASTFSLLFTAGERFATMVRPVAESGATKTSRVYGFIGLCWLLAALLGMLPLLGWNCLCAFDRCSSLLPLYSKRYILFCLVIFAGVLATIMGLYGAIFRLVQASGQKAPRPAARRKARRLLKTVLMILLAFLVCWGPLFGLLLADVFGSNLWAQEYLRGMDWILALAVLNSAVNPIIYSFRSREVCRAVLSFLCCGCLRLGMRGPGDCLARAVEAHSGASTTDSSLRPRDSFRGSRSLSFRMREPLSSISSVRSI
Text: The Tango assay detects ligand-dependent GPCR activity through the interaction between β-arrestin and GPCRs. […] The NTEV fragment and the tetracycline transactivator (tTA), an artificial transcription factor, are fused at the C-terminus of the GPCR, while the CTEV fragment is fused to human β-arrestin 2. To enhance the stability of the interaction between GPCR and β-arrestin, a short sequence from the C-terminus of the human arginine vasopressin receptor 2 (V2 tail) is inserted between the GPCR and NTEV. The V2 tail contains multiple GRK phosphorylation sites, which strengthen β-arrestin binding upon phosphorylation. The CTEV fragment carries the stabile point mutation S219P and is truncated at residue 221 to remove the autoinhibitory C-terminal tail. Meanwhile, β-arrestin 2 is truncated to lack the entire C-terminal tail (residues 383-410 deleted). This truncation confers robust stimulus-dependent receptor desensitization, thereby improving detection sensitivity compared with wild-type β-arrestin 2. The UAS reporter construct consists of upstream activating sequence (UAS) elements, a minimal CMV promoter, and a tTA-dependent luciferase reporter gene. Therefore, constructing Tango cells requires the co-transfection of the above three plasmids into host cells. Upon GPCR activation and β-arrestin recruitment, the TEV enzyme at the β-arrestin terminus cleaves tTA from the GPCR C-terminus. The released tTA initiates tTA-dependent luciferase transcription, and compound activity is ultimately determined by measuring luminescence intensity.
• 1) Tango cell line from was digested from the culture dish respectively. After cell counting, the cells were plated at a density of 10,000 cells per well with […] into a white opaque 96-well plate (add 60 µL D'Hanks to the surrounding wells), and incubated overnight (20 h) in a 5% CO2 incubator at 37°C. The cell density will reach approximately 90% the next day. • 2) After 20 h, 30 µL of serially diluted compound solution was added to each well. The control group was supplemented with 30 µL F12K complete medium. Each group had three replicate wells. • 3) Samples were collected after 20 h of drug treatment.
(All compounds were tested at a final concentration of 45 µM, with 9 serial dilutions at 5-fold intervals. 1 µM BAF-312 was used as the positive control for S1PR1, and 25 µM BAF-312 was used as the positive control for S1PR4.)
(§1) ^a β-arrestin recruitment activity based on Tango-S1PR1-CHO-K1 and Tango-S1PR4-CHO-K1 cells, expressed as mean EC50 values ± SD. ^b FLIPR assays were performed using S1PR2-CHO and S1PR5-CHO cell lines, expressed as mean EC50 values ± SD. ^c β-arrestin recruitment activity based on PathHunter CHO-K1-S1PR3 cells, expressed as mean EC50 values ± SD. Data are the mean of at least two independent determinations, reported as mean ± SD (standard deviation).

[2] = molecular target: T2, S1PR5 (Homo sapiens, UniProt Q9H228); experiment: FLIPR assay, S1PR5-CHO cell line; assay type: cell-based
T2 construct: expressed in transfected cells; host or cells: CHO
T2 sequence (Q9H228 whole entry, species assumed): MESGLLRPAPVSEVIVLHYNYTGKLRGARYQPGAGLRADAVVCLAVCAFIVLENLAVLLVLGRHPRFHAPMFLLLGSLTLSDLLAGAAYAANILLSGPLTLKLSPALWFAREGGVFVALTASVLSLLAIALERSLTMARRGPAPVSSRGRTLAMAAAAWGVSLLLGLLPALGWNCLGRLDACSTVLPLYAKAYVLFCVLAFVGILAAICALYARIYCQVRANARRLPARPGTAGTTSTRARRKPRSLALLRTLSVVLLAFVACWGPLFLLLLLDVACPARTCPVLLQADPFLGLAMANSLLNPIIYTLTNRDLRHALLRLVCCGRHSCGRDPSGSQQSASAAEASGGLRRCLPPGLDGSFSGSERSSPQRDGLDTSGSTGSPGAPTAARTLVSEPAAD
Experimental: as §1

[3] = molecular target: T3, S1PR4 (Homo sapiens, UniProt O95977); experiment: S1PR4 internalization function test in S1PR4-293T cells; assay type: cell-based; settings: 1 µM, 37 °C, 1.5 hours; detected immediately, or at 5 hours or 20 hours after treatment
T3 construct: expressed in transfected cells; host or cells: 293T
T3 sequence (O95977 1-384): T1 sequence (O95977 1-384)
Experimental: Therefore, the recovery degree of S1PR4 after internalization caused by Compound 30 was evaluated, and the recovery effect following receptor internalization caused by Compound 30 was assessed in cells with high S1PR4 expression.

[4] = system: S1PR4-R82C/NDUFA10-R217W double-mutant mice; experiment: In vivo efficacy in S1PR4-R82C/NDUFA10-R217W double-mutant muscular dystrophy mice; settings: for grip strength (ratio of grip strength to body weight): after 21 days of treatment; for body weight gain trend: compared with the model group; for collagen deposition (collagen area ratio): after administration
Experimental: Experimental Animals: A total of 34 S1PR4-R82C/NDUFA10-R217W mice were divided into 6 groups as shown below.
Intragastric administration was initiated on Day 0, and body weight was measured daily during the experiment to adjust the drug dosage. Grip strength was measured at the beginning and end of the experiment to observe motor changes in mice. Changes in the limb grip strength, serum creatine kinase content, and muscle fibrosis/inflammation in mice were detected as indicators for evaluating drug efficacy.
The mouse was placed horizontally on the grip test board. The mouse's tail was held and pulled gently in the opposite direction without using excessive force. The tail was gradually pulled until the mouse released the grip force sensor. The maximum value recorded by the grip force sensor is the grip strength. The test was repeated for 3 times and the average value was taken.
After the completion of administration, blood was collected via the orbital sinus, allowed to stand for 30 minutes, centrifuged at 3000 rpm at 4°C for 15 minutes, and serum was extracted, stored frozen at -20°C, and detected in accordance with the kit instructions.
After the experiment, the tibialis anterior, extensor digitorum longus, and diaphragm of the mice were harvested, fixed, sectioned, and subjected to HE staining and Sirius Red staining to observe the degree of muscle fibrosis. The slice was subjected to immunofluorescence staining with F4/80 to observe the level of muscle inflammation.

[5] = system: LPS-induced sepsis model; experiment: LPS-induced sepsis myopathy (skeletal muscle atrophy) model; assay type: in vivo, mice; settings: for atrophy of the tibialis anterior muscle: 14 days of LPS treatment; for survival rate: 14 days after LPS (1 mg/kg)
Text: Animal models of sepsis can be established by injecting exogenous toxins into animals. In this study, a sepsis model was established via intraperitoneal injection of lipopolysaccharide to observe the effects of compounds on the occurrence and development of acquired weakness. This is a widely used method for modeling sepsis.
A skeletal muscle atrophy model induced by lipopolysaccharide can simulate clinical muscle atrophy caused by sepsis.
Mice were given a single intraperitoneal injection of LPS (1 mg/kg), followed by 14 consecutive days of intraperitoneal injection of either vehicle (1% DMSO dissolved in physiological saline) or Compound 30. Body weight was measured daily. After 14 days of LPS treatment, the mice were anesthetized, and the gastrocnemius and tibialis anterior muscles were harvested.

[6] = 0.3 mg/kg intragastric once daily
[7] = 1 mg/kg intragastric once daily
[8] = 1 mg/kg intragastric once daily, after treatment
[9] = 3 mg/kg intragastric once daily

For CCc1cc(/C(C)=N/OCc2ccc(-c3ccccc3)c(C)c2)ccc1CN1CC[C@H](C(=O)O)C1 [Compound 30], the Emax [1] was 104%, the “agonist activity on S1PR5” value ([2]; compared with the endogenous ligand S1P) was “no agonist activity” and the Emax ([2]; selectivity table, FLIPR, S1PR5-CHO) was 19.5%. For the same molecule, the “S1PR4 internalization (expression of S1PR4 receptor on the cell surface)” value [3] was “sustained internalization capacity”, the “grip strength (ratio of grip strength to body weight)” value [4, 6] was “significantly increased” and the “body weight gain trend” value [4, 6] was “no difference”. The “grip strength (ratio of grip strength to body weight)” value [4, 7] was “significantly increased”, the “collagen deposition (collagen area ratio)” value [4, 7] was “significantly reduced collagen deposition” and the “macrophage content (F4/80 immunofluorescence, muscle inflammation)” value [4, 8] was “greatest reduction”. For the same molecule, the “number of centrally nucleated fibers (HE staining)” value [4, 8] was “greatest reduction”, the “serum creatine kinase level” value [4, 8] was “significantly reduced” and the “body weight gain trend” value [4, 7] was “no difference”. The “collagen deposition (collagen area ratio)” value [4, 9] was “significantly reduced collagen deposition”, the “body weight gain trend” value [4, 9] was “no difference” and the “serum creatine kinase level” value ([4]; 4 mg/kg (so in the source) intragastric once daily, after treatment) was “significantly reduced”. For the same molecule, the “atrophy of the tibialis anterior muscle” value ([5]; high dose (Compound 30: 10mg/kg intraperitoneal once daily), 10 mg/kg) was “significantly inhibited”, the survival rate ([5]; low-dose group (0.1mg/kg intraperitoneal once daily)) was 75% and the “atrophy of the tibialis anterior muscle” value ([5]; medium dose (Compound 30: 1mg/kg intraperitoneal once daily), 1 mg/kg) was “significantly inhibited”. It also gave a survival rate ([5]; medium-dose group (1mg/kg intraperitoneal once daily)) of 50%.
